In article PMC7481482, “Development of Anthraquinone Derivatives as Ectonucleoside Triphosphate Diphosphohydrolase (NTPDase) Inhibitors With Selectivity for NTPDase2 and NTPDase3” (Frontiers in Pharmacology, 2020):

Assays:
human NTPDase1 = target: T1, human NTPDase1 (Homo sapiens, UniProt P49961); assay: Malachite green assay, human NTPDase1; assay type: biochemical; conditions: 2 μM compound; 50 µM ATP; COS-7 membrane preparation; read-out: % inhibition at 2 μM concentration, NTPDase1
T1 construct: expressed in transfected cells; host or cells: COS-7 cells (membrane preparation)
T1 sequence (P49961 1-510): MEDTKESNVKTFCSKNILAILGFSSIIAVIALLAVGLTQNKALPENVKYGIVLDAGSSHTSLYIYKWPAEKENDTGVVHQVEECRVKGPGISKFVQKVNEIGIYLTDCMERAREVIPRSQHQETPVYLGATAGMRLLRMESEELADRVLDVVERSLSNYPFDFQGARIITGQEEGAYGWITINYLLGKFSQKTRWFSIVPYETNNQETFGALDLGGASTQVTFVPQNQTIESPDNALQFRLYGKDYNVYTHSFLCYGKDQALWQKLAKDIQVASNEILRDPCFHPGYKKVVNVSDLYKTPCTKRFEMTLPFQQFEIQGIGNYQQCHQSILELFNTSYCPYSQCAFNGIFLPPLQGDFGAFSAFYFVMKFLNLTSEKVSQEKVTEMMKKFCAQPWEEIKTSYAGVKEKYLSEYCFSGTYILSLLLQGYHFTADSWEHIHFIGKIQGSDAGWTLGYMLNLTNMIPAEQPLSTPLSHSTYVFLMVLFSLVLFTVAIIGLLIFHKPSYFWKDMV
Experimental: (§1) Membrane preparations expressing human NTPDase1, -2, -3, or -8, respectively, were obtained as previously described ([Sévigny et al., 1997]; [Cogan et al., 1999]; [Kukulski et al., 2005]; [Lecka et al., 2013]; [Lee et al., 2018]). Enzyme inhibition assays were performed using the malachite green assay in analogy to published procedures with some modifications ([Dou et al., 2018]). The reaction buffer contained 10 mM HEPES, 2 mM CaCl2, and 1 mM MgCl2 (pH 7.4) in a final volume of 50 μL in transparent 96-well half-area plates. The compounds were initially tested at a final concentration of 2 µM using a COS-7-cell membrane preparation expressing the appropriate NTPDase isoenzyme (protein amount: 143 ng for NTPDase1, 175 ng for NTPDase2, 152 ng for NTPDase3, and 175 ng for NTPDase8). Preincubated of the enzyme preparations was perfomred at 37°C in the presence or absence of test compounds with gentle shaking (Eppendorf Thermomixer comfort at 500 rpm) for 5 min. […] ([Kukulski et al., 2005]). After 15 min of incubation at 37°C with gentle shaking, the reaction was stopped by the addition of the detection reagents (20 µL malachite green solution, 0.6 mM, and 30 µL of ammonium molybdate solution, 20 mM, in 1.5 M sulfuric acid). The released inorganic phosphate was quantified after 20 min of gentle shaking at 25°C by measuring the absorption of the malachite green-phosphomolybdate complex at 600 nm using a BMG PheraStar FS plate reader (BMG Labtech GmbH, Ortenberg, Germany). The corrected absorption was calculated by subtracting the absorption of the negative control samples, which were incubated with previously denatured enzyme (90°C, 15 min). Full concentration-inhibition curves were determined with inhibitor concentrations ranging from 0.03 to 30 µM in the presence of 2% DMSO. Inhibition-type experiments were performed with 25, 50, 100, 150 and 200 µM ATP as substrate for NTPDase2 in the presence of inhibitor 20 (0, 0.25, 0.5, and 1 µM) and 25, 50, 100 and 150 µM ATP substrate for NTPDase3 and compound 42 (0.25, 0.5, and 1 µM). For all of the presented data, at least three independent experiments were performed, and IC50 values were calculated by GraphPad Prism 8 software.
(§2) Inhibition of human NTPDases was performed using the malachite green assay, which was established on a robotic system (Z’ factors > 0.70) ([Baykov et al., 1988]; [Fiene et al., 2015]). The malachite green assay enables the detection of the phosphate produced by the enzymatic hydrolysis of nucleotides. A fixed substrate concentration of 50 µM ATP for NTPDase1 and 100 µM for NTPDase2, -3, and -8 was employed. Test compounds were initially screened at a concentration of 2 μM. […] A total of 48 synthesized anthraquinone derivatives including 14 new compounds not previously described in the literature were evaluated for their inhibitory activity at human NTPDase1, -2, -3, and -8 (for results see Table 1).

human NTPDase2 = target: T2, human NTPDase2 (Homo sapiens, UniProt Q9Y5L3); assay: Malachite green assay, human NTPDase2; assay type: biochemical; conditions: 100 µM ATP, COS-7 membrane preparation; for IC50: read-out: IC50 ± SEM, NTPDase2; for inhibition at 2 µM: 2 μM compound, read-out: % inhibition at 2 μM concentration, NTPDase2
T2 construct: expressed in transfected cells; host or cells: COS-7 cells (membrane preparation)
T2 sequence (Q9Y5L3 1-495): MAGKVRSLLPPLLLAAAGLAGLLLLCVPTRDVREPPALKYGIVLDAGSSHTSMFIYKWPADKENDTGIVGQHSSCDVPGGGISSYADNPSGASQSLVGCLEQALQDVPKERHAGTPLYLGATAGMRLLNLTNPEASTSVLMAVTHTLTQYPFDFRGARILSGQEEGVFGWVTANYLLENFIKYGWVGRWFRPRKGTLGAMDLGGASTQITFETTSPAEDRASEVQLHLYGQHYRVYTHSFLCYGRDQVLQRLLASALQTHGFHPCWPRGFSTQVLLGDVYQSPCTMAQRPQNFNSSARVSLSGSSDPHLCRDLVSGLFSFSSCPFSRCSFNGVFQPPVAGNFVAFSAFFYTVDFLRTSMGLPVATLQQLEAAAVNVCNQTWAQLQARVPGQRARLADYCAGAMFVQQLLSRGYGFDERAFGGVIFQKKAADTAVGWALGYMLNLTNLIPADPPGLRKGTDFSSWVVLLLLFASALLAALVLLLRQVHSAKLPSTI
Experimental: as §1, §2

human NTPDase3 = target: T3, human NTPDase3 (Homo sapiens, UniProt O75355); assay: Malachite green assay, human NTPDase3; assay type: biochemical; conditions: 2 μM compound; 100 µM ATP; COS-7 membrane preparation; read-out: % inhibition at 2 μM concentration, NTPDase3
T3 construct: expressed in transfected cells; host or cells: COS-7 cells (membrane preparation)
T3 sequence (O75355 1-529): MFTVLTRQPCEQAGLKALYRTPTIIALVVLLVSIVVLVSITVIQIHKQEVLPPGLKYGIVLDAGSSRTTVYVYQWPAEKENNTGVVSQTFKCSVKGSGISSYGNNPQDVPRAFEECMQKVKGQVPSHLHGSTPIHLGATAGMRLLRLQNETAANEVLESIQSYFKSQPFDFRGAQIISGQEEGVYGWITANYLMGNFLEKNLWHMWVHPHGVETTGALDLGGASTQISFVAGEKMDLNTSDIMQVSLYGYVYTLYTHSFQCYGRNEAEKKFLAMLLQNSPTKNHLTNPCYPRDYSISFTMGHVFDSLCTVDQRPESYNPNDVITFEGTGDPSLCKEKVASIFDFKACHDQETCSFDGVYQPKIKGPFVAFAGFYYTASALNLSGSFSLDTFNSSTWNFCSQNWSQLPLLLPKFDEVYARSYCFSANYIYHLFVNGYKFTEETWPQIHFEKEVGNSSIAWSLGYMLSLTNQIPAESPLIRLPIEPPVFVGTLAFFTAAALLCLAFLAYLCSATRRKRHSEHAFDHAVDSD
Experimental: as §1, §2

human NTPDase8 = target: T4, human NTPDase8 (Homo sapiens, UniProt Q5MY95); assay: Malachite green assay, human NTPDase8; assay type: biochemical; conditions: 2 μM compound; 100 µM ATP; COS-7 membrane preparation; read-out: % inhibition at 2 μM concentration, NTPDase8
T4 construct: expressed in transfected cells; host or cells: COS-7 cells (membrane preparation)
T4 sequence (Q5MY95 1-495): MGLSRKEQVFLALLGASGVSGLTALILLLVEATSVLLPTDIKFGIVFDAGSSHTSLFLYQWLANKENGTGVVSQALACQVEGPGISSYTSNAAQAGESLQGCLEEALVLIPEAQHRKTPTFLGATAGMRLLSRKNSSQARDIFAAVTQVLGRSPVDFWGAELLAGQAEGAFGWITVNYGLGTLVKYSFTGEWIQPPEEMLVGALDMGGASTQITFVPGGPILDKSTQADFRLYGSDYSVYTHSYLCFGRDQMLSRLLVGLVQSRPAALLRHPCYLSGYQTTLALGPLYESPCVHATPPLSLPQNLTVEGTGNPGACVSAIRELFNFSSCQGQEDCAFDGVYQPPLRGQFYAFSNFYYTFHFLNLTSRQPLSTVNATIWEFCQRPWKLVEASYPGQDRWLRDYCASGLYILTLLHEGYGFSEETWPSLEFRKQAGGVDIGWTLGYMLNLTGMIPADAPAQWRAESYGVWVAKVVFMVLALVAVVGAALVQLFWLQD
Experimental: as §1, §2

Structure (SMILES) | inhibition at 2 µM (human NTPDase1) [%] | IC50 (human NTPDase2) [nM] | inhibition at 2 µM (human NTPDase3) [%] | inhibition at 2 µM (human NTPDase8) [%] | melting point [°C] | inhibition at 2 µM (human NTPDase2) [%]
Nc1c(S(=O)(=O)[O-])cc(Nc2cccc(Sc3ccccc3)c2)c2c1C(=O)c1ccccc1C2=O.[Na+] [Compound 41, Sodium 1-amino-4-(3-(phenylsulfanyl)phenylamino)-9,10-dioxo-9,10-dihydroanthracene-2-sulfonate] | 1 | 984 ± 327 | 10 | 6 | > 300 | –
Nc1c(S(=O)(=O)[O-])cc(Nc2cccc(Cl)c2Cl)c2c1C(=O)c1ccccc1C2=O.[Na+] [Compound 34, Sodium 1-amino-4-(2,3-dichlorophenylamino)-9,10-dioxo-9,10-dihydroanthracene-2-sulfonate] | 1 | – | -2 | 7 | > 300 | 16
Nc1c(S(=O)(=O)[O-])cc(Nc2ccccc2CO)c2c1C(=O)c1ccccc1C2=O.[Na+] [Compound 27, Sodium 1-amino-4-(2-(hydroxymethyl)phenylamino)-9,10-dioxo-9,10-dihydroanthracene-2-sulfonate] | -1 | – | 11 | 4 | > 300 | 12
Nc1c(S(=O)(=O)[O-])cc(Nc2cccc(CO)c2)c2c1C(=O)c1ccccc1C2=O.[Na+] [Compound 28, Sodium 1-amino-4-(3-(hydroxymethyl)phenylamino)-9,10-dioxo-9,10-dihydroanthracene-2-sulfonate] | -2 | – | -9 | 1 | > 300 | 7
Nc1c(S(=O)(=O)[O-])cc(Nc2ccc(CO)cc2)c2c1C(=O)c1ccccc1C2=O.[Na+] [Compound 29, Sodium 1-amino-4-(4-(hydroxymethyl)phenylamino)-9,10-dioxo-9,10-dihydroanthracene-2-sulfonate] | -4 | – | -3 | -4 | > 300 | 5
Nc1c(S(=O)(=O)[O-])cc(Nc2cccc(F)c2C(=O)O)c2c1C(=O)c1ccccc1C2=O.[Na+] [Compound 35, Sodium 1-amino-4-(2-carboxy-3-fluorophenylamino)-9,10-dioxo-9,10-dihydroanthracene-2-sulfonate] | -21 | – | 32 | -10 | > 300 | -3

Further lines, results first:

inhibition at 2 µM (human NTPDase1) [%] | IC50 (human NTPDase2) [nM] | inhibition at 2 µM (human NTPDase3) [%] | inhibition at 2 µM (human NTPDase8) [%] | melting point [°C] | inhibition at 2 µM (human NTPDase2) [%] | Structure (SMILES)
52 | 1080 ± 80 | 42 | 21 | > 300 | – | Nc1c(S(=O)(=O)[O-])cc(Nc2ccc(Sc3ccc(Cl)cc3)cc2)c2c1C(=O)c1ccccc1C2=O.[Na+] [Compound 45, Sodium 1-amino-4-[4-(4-chlorophenylthio)phenylamino]-9,10-dioxo-9,10-dihydroanthracene-2-sulfonate]
14 | – | 9 | -1 | > 300 | -6 | O=C1c2ccccc2C(=O)c2c(Nc3cccc(F)c3)cc(S(=O)(=O)O)cc21 [Compound 57, 4-(3-Fluorophenylamino)-9,10-dioxo-9,10-dihydroanthracene-2-sulfonic acid]
-4 | – | -2 | -4 | 229 to 230 | 5 | CCc1cccc(Nc2cc(Br)c(N)c3c2C(=O)c2ccccc2C3=O)c1 [Compound 53, 1-Amino-2-bromo-4-(3-ethylphenylamino)anthracene-9,10-dione]
34 | 951 ± 225 | 16 | 4 | > 300 | – | COc1ccc(Sc2ccc(Nc3cc(S(=O)(=O)[O-])c(N)c4c3C(=O)c3ccccc3C4=O)cc2)cc1.[Na+] [Compound 47, Sodium 1-amino-4-[4-(4-methoxyphenylthio)phenylamino]-9,10-dioxo-9,10-dihydroanthracene-2-sulfonate]
